Experiments:
S. cerevisiae ISI107 = experiment: MIC microtiter plate assay in filtered apple juice; format: cell-based, Saccharomyces cerevisiae; conditions: filtered apple juice (pH 3.59), 25° C., aerobically
[1] = has been reported; cited from earlier work
[2] = test system: Aspergillus niger ATCC 1015; experiment: MIC by broth dilution method in 96-well microplates; format: cell-based; conditions: Mueller Hinton Broth, 24 h
Bacillus cereus L8PQ = experiment: as above; format: cell-based; conditions: Mueller Hinton Broth, 24 h
[3] = test system: total aerobic microflora (TAM); experiment: Accelerated shelf-life testing of strawberry fillings and puddings; format: cell-based; conditions: 0.2% by mass Composition A or 0.1% by mass sodium benzoate; 28° C., 70% RH, 35 days (Month 1 to Month 15)
Experimental: (§1) The shelf-life of the strawberry fillings and strawberry flavor puddings, containing 0.2% by mass Composition A or 0.1% by mass sodium benzoate, […], from a procedure by Kilcast and Persis (2000) by determining the concentration of total aerobic microflora (TAM) and yeast/molds (YM). […]; Sheldon Manufacturing Inc., Cornelius, Oreg., USA), in order to simulate an accelerated maturity of the products. A storage time of 2 weeks in these conditions corresponds to 6 months in normal conditions (20° C., 45% RH). […] Samples were homogenized for 2 min at 260 rpm in 50 mL of sterile peptone water (0.1% w/v) with a Lab-Blender™ 400 stomacher (Laboratory Equipment, London, UK). From each homogenate, serial dilutions were prepared, plated onto surface of Plate Count Agar (PCA) (Difco, BD) for TAM enumeration or PDA for YM enumeration and incubated for 24-48 h at 37° C. (resp. 28° C.) before counting.

yeast/molds (YM) = experiment: as above; format: cell-based
Experimental: as §1

[4] = test system: Zygosaccharomyces rouxii ATCC R 995; experiment: MIC by broth dilution method in 96-well microplates; format: cell-based; conditions: Mueller Hinton Broth, 24 h
[5] = test system: Salmonella typhimurium SL1344; experiment: as above; format: cell-based; conditions: Mueller Hinton Broth, 24 h
Escherichia coli EDL 933 = experiment: as above; format: cell-based; conditions: Mueller Hinton Broth, 24 h
[6] = test system: Staphylococcus aureus ATCC 25923; experiment: as above; format: cell-based; conditions: Mueller Hinton Broth, 24 h
[7] = test system: Listeria monocytogenes HPB 2812; experiment: as above; format: cell-based; conditions: Mueller Hinton Broth, 24 h
[8] = test system: Xeromyces bisporus ATCC MY-36964; experiment: as above; format: cell-based; conditions: Mueller Hinton Broth, 24 h

Row | SMILES | MIC (S. cerevisiae ISI107) | Resistance to thermal processing [1] | MIC [2] [ppm] | MIC (Bacillus cereus L8PQ) | TAM concentration in strawberry fillings [3] | Yeast/Mold (Y/M) concentration in strawberry flavor puddings (yeast/molds (YM); 0.2% Composition A or 0.1% sodium benzoate, after 35 days accelerated storage, also no growth in control, data not shown) | Yeast/Mold (Y/M) concentration in strawberry fillings (yeast/molds (YM); 0.2% by mass Composition A or 0.1% by mass sodium benzoate, 28° C., 70% RH, 35 days (Month 1 to Month 15)) | MIC [4] [ppm] | MIC [5] | MIC (Escherichia coli EDL 933) | MIC [6] | MIC [7] | MIC [8] [ppm]
1 | CCCCCCCCCCCC(=O)N[C@@H](CCCN=C(N)N)C(=O)OCC [lauric arginate, ethyl lauroyl arginate] | about 156 ppm | resistant to all types of thermal processing including boiling |  |  |  |  |  |  |  |  |  |  | 
2 | O=C([O-])c1ccccc1.[Na+] [Sodium benzoate, sodium benzoate] |  |  | 648 | 5 185 ppm | total inhibition | no growth | total inhibition | 162 | 5 185 ppm | 10 730 ppm | 5 185 ppm | 5 185 ppm | 81

From patent publication US20170079281A1, “CITRUS-BASED ANTIMICROBIAL COMPOSITION” (priority 2015, published 2017)
